From PubChem BioAssay (NCI)
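The concentration for 50% growth inhibition is given as GI50. TGI is the concentration that stops growth completely.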

Assays:
Assay in all cases: DTP human tumour cell line panel, 384-well format
[1] = test system: OVCAR-8 ovarian
[2] = test system: SF-295 CNS
[3] = test system: SR leukemia
[4] = test system: HOP-92 NSCLC
[5] = test system: DU-145 prostate
[6] = test system: UO-31 renal
[7] = test system: HOP-62 NSCLC
[8] = test system: NCI-H226 lung
[9] = test system: BT-549 breast
[10] = test system: K-562 leukemia
[11] = test system: SK-MEL-5 melanoma
[12] = test system: HL-60(TB) leukemia
[13] = test system: HT29 colon
[14] = test system: M14 melanoma
[15] = test system: OVCAR-5 ovarian
[16] = test system: COLO 205 colon
[17] = test system: LOX IMVI melanoma
[18] = test system: MDA-MB-231 breast
[19] = test system: RPMI-8226 leukemia
[20] = test system: MDA-MB-468 breast
[21] = test system: MALME-3M melanoma
[22] = test system: IGROV1 ovarian
[23] = test system: UACC-257 melanoma
[24] = test system: SNB-19 CNS
[25] = test system: MCF7 breast
[26] = test system: HCT-15 colon
[27] = test system: OVCAR-3 ovarian
[28] = test system: U251 glioblastoma

COc1cc2c(Oc3ccc(-c4cnc(Nc5ccc(F)cc5)n(C)c4=O)cc3F)ccnc2cc1OCCCN1CCOCC1
GI50 [1]: 1.31 µM
TGI [1]: 2.59 µM
GI50 [2]: 0.439 µM
TGI [2]: 1.64 µM
GI50 [3]: 0.513 µM
TGI [3]: 1.68 µM
GI50 [4]: 0.0764 µM
TGI [4]: 0.452 µM
GI50 [5]: 1.47 µM
TGI [5]: 2.8 µM
GI50 [6]: 0.409 µM
TGI [6]: 1.43 µM
GI50 [7]: 1.31 µM
TGI [7]: 2.59 µM
GI50 [8]: 0.476 µM
TGI [8]: 1.57 µM
GI50 [9]: 0.684 µM
TGI [9]: 1.87 µM
GI50 [10]: 0.0107 µM
TGI [10]: 0.0234 µM
GI50 [11]: 0.329 µM
TGI [11]: 1.5 µM
GI50 [12]: 0.268 µM
TGI [12]: 1.13 µM
GI50 [13]: 0.275 µM
TGI [13]: 1.2 µM
GI50 [14]: 0.248 µM
TGI [14]: 0.814 µM
GI50 [15]: 0.811 µM
TGI [15]: 2.05 µM
GI50 [16]: 0.227 µM
TGI [16]: 0.761 µM
GI50 [17]: 0.402 µM
TGI [17]: 1.45 µM
GI50 [18]: 0.748 µM
TGI [18]: 2.03 µM
GI50 [19]: 0.545 µM
TGI [19]: 1.74 µM
GI50 [20]: 1.54 µM
TGI [20]: 2.87 µM
GI50 [21]: 0.14 µM
TGI [21]: 0.453 µM
GI50 [22]: 0.368 µM
TGI [22]: 1.47 µM
GI50 [23]: 0.252 µM
TGI [23]: 1.09 µM
GI50 [24]: 1.26 µM
TGI [24]: 2.52 µM
GI50 [25]: 0.441 µM
TGI [25]: 1.62 µM
GI50 [26]: 0.792 µM
TGI [26]: 2.03 µM
GI50 [27]: 0.804 µM
TGI [27]: 2.04 µM
GI50 [28]: 1.14 µM
TGI [28]: 2.36 µM
